# From publication PMC539285, “Anti-Plasmodium activity of ceramide analogs” (Malaria Journal, 2004)
# Like-named read-outs stand apart in the source and are kept apart here.
# Experiments:
# [1] = system: chloroquine-resistant strain FcB1 of P. falciparum; assay: Anti-Plasmodium activity, [3H]hypoxanthine microdilution on asynchronous cultures; format: cell-based, Plasmodium falciparum; conditions: for IC50 / IC90: Plasmodium falciparum; for IC90: 48 h, 90% growth inhibition, read-out: CI90 (the source's name)
# Protocol: P. falciparum strains (FcB1/Colombia, K1/Thailand, F32/Tanzania, W2/Indochina) were maintained in continuous culture on human erythrocytes in RPMI medium containing 7% (v/v) heat-inactivated human serum under an atmosphere of 3% CO2, 6% O2, 91% N2, at 37°C, as described by Trager and Jensen. Parasite synchronization was performed successively by treatment with 5% (w/v) sorbitol and by concentration in gelatin solution as previously described.
# Drug susceptibility assays were performed using a modification of the semi automated microdilution technique of Desjardins et al.. Stock solutions of test compounds were prepared in DMSO. Drug solutions were serially diluted twofold with 100 μl culture medium in 96-well plates. Asynchronous parasite cultures (100 μl, 1 % parasitemia and 1 % final hematocrite) were added to each well and incubated for 24 hours at 37°C prior to the addition of 0.5 μCi of [^3H] hypoxanthine (Amersham, France, 1 to 5 Ci.mmol/ml) per well. After a further incubation of 24 hour, plates were frozen and thawed. Cell lysates were then collected onto glass-filter papers and counted in a liquid scintillation spectrometer. The growth inhibition for each drug concentration was determined by comparison of the radioactivity incorporated in the treated culture with that in the control culture (having the same final % of DMSO) maintained on the same plate. The concentration causing 50% growth inhibition (IC50) and 90% growth (IC90) were obtained from the drug concentration-response curve and the results were expressed as the means ± the standard deviations determined from several independent experiments.
# [2] = Cytotoxicity test upon human embryonic cells (MTT); format: cell-based; conditions: human, MRC-5 human diploid embryonic lung cells; MRC-5, five days, MTT; mean of three experiments
# Protocol: (§1) A human diploid embryonic lung cell line (MRC-5, Bio-Whittaker 72211D) was used to assess the cytotoxic effects towards eukaryotic host cells. MRC-5 cells were seeded at 5,000 cells per well in 100 μl. After 24 hours, the cells were washed and two-fold dilutions of the drug were added in 200 μl standard culture medium (RPMI medium + 5% fetal calf serum) and maintained for five days under 5% CO2 atmosphere. The final DMSO concentration in the culture remained below 0.1%. Untreated cultures were included as controls. The cytotoxicity was determined using the colorimetric MTT assay according to the manufacturer's recommendations (Cell proliferation kit I, Roche Applied Science, France) and scored as a percentage of reduction in absorption at 540 nm of treated cultures versus untreated control cultures. […] The results were expressed as the mean ± the standard deviations determined from several independent experiments. The index of selectivity was defined as the ratio of the IC50 value on MRC-5 to that of P. falciparum.
# human MRC-5 cells = assay: Cytotoxicity test upon human embryonic cells (MTT); format: cell-based; conditions: for IC50: Homo sapiens, MRC5, 120 h, MRC-5, five days, MTT, mean of three experiments; for Index of selectivity: ratio of the IC50 value on MRC-5 cells to that on P. falciparum
# Protocol: as §1
# [3] = system: P. falciparum synchronized cultures; assay: Parasite stage-specific inhibitory effects and reversibility (Giemsa-stained smears); format: cell-based, Plasmodium falciparum; conditions: trophozoite stage, 250 nM (data not shown)
# Protocol: Synchronized cultures (1–2% parasitemia) at the ring stage (0–10 hours old parasites), the trophozoite stage (25–35 hours old parasites) and the schizonte stage (40–48 hours old parasites) were maintained in the presence of drug concentrations in the vicinity of IC50 values. Aliquots were removed at the indicated times, washed three times with culture medium and maintained in culture in the absence or in the presence of a given drug. […] Parasitaemias were determined by counting 3,000 cells for each sample. Controls consisted of parasites incubated with DMSO instead of drugs processed in the same way.
# To investigate the cytostatic or cytotoxic effects of AD2646 on the parasite development, cultures at the ring stage (0–10 hours), the trophozoite stage (25–35 hours) and the schizonte stage (40–48 hours) were incubated with 30, 100 or 250 nM of AD2646 for 24.5 hours for the ring stage, for 11 hours for the trophozoite stage, and for 14 hours for the schizonte stage. Aliquots were then taken, washed and incubated in the absence or the presence of drug for a further 13 hours to 24 hours depending upon the parasite stage tested (see Figure 5). Parasitaemia and parasite stages were determined on Giemsa-stained smears at time of aliquot removal and after the subsequent incubation.
# [4] = Figure 2, series A (amide linkage), strain FcB1, read-out: CI50 (the source's name)
# [5] = Figure 3, series B, strain FcB1
# [6] = Figure 3, series B (methylene or thiourea linkage), strain FcB1, read-out: CI50 (the source's name)
# [7] = Figure 2, series A (amide linkage), strain FcB1
# [8] = FCB1, Figure 4, selected derivatives, read-out: IC50
Compound,"IC50 [1, 4]","IC50 [1, 6]","IC90 [1, 5]","IC90 [1, 7]",also measured
CCCC(=O)N[C@@H](CO)[C@@H](O)c1ccc([N+](=O)[O-])cc1 [AD2549],> 100 µM,–,–,–,–
CC(=O)N[C@H](CO)[C@H](O)c1ccc([N+](=O)[O-])cc1 [AD2590],> 100 µM,–,–,–,–
CCCCCCCCCCCCCCN[C@@H](CO)[C@@H](O)c1ccc([N+](=O)[O-])cc1 [AD2645],–,0.0379 ± 0.0021 µM,0.104 ± 0.001 µM,–,IC90 at 5 days [2]: 10.3 µM; IC50 (human MRC-5 cells): 6.1 µM; Index of selectivity (human MRC-5 cells): 161
CCCCCCCCCCCCCCCCN[C@H](CO)[C@H](O)c1ccc([N+](=O)[O-])cc1 [AD2619],–,0.0428 ± 0.0085 µM,0.073 ± 0.005 µM,–,IC90 at 5 days [2]: 42.3 µM; IC50 (human MRC-5 cells): 26.7 µM; Index of selectivity (human MRC-5 cells): 624
CCCCCCCCCCCCCCCC(=O)N[C@H](CO)[C@H](O)c1ccc(N)cc1 [AD2623],40.4 µM,–,–,81.3 µM,–
"CCN(CC)CCCC(C)Nc1ccnc2cc(Cl)ccc12 (centres unmarked) [chloroquine, reference compound]",–,–,–,–,IC50 ([1]; FCB1): 0.115 ± 0.025 µM
CCCCCCCCCCCCCCN[C@H](C)[C@H](O)c1ccccc1 [AD-2724],–,–,–,–,"IC50 [1, 8]: 0.0334 ± 0.0031 µM"
CCCCCCCCCCCC(=O)Nc1ccc([C@@H](O)[C@@H](CO)NC(=O)CCC)cc1 [AD2604],70 µM,–,–,> 100 µM,–
CCCCCCCC(=O)Nc1ccc([C@@H](O)[C@@H](CO)NC(=O)CCC)cc1 [AD2603],70.1 µM,–,–,> 100 µM,–
CCCC(=O)N[C@H](CO)[C@H](O)c1ccc(NC(=O)CCC(=O)O)cc1 [AD2606],> 100 µM,–,–,–,–
CCCCCCCCCCCCCC(=O)N[C@H](CO)[C@H](O)c1ccc([N+](=O)[O-])cc1 [AD2557],17.2 ± 5.5 µM,–,–,37.8 ± 15.3 µM,–
CCCCCCCCCCCCCCNC(CO)Cc1ccccc1 (centres unmarked) [AD2729],–,–,–,–,"reduction of anti-Plasmodium activity by removal of the carbon 3 hydroxyl group ([1]; AD2729 compared with AD2730): 13.5 times; IC50 [1, 8]: 0.258 ± 0.0107 µM; IC90 at 5 days [2]: 9.8 µM; IC50 (human MRC-5 cells): 5.8 µM; Index of selectivity (human MRC-5 cells): 22"
CCCCCCCCCCCCCC(=O)N[C@@H](CO)[C@@H](O)c1ccc([N+](=O)[O-])cc1 [AD2560],18.7 ± 6.5 µM,–,–,36 ± 18.2 µM,–
CCCCCCNc1ccc([C@@H](O)[C@@H](CO)NCCCCCC)cc1 [AD2651],–,0.0857 ± 0.0232 µM,0.135 ± 0.019 µM,–,"parasite development, trophozoite stage [3]: complete inhibition of parasite development"
CCCC(=O)N[C@H](CO)[C@H](O)c1ccc([N+](=O)[O-])cc1 [AD2583],26.8 µM,–,–,67.4 µM,–
CCCCCCCCCCCCCCN[C@H](CO)[C@H](O)c1ccccc1 [AD2730],–,–,–,–,"IC50 [1, 8]: 0.0189 ± 0.0017 µM; IC90 at 5 days [2]: 9.9 µM; IC50 (human MRC-5 cells): 6.1 µM; Index of selectivity (human MRC-5 cells): 322"
CCCCCCCCCCCC(=O)N[C@H](CO)[C@H](O)c1ccc([N+](=O)[O-])cc1 [AD2552],16.5 ± 6.5 µM,–,–,36.3 ± 16.1 µM,–
CCCCCCCCCCCC(=O)Nc1ccc([C@@H](O)[C@H](N)CO)cc1 [AD2648],4.9 µM,–,–,9.6 µM,–
CCCCCCCCCCCCCCCC(=O)N[C@H](CO)[C@H](O)c1ccc([N+](=O)[O-])cc1 [AD2495],10.8 ± 2.3 µM,–,–,20.3 ± 1.4 µM,–
CCCCCCCC(=O)N[C@H](CO)[C@H](O)c1ccc([N+](=O)[O-])cc1 [AD2494],13.1 µM,–,–,70 µM,–
CCCCCCCCCCCCCCCC(=O)Nc1ccc([C@@H](O)[C@@H](CO)NC(=O)CCC)cc1 [AD2605],> 100 µM,–,–,–,–
O=C(CCCO)N[C@H](CO)[C@H](O)c1ccc([N+](=O)[O-])cc1 [AD2589],> 100 µM,–,–,–,–
CCCC(=O)Nc1ccc([C@@H](O)[C@@H](CO)NC(=O)CCC)cc1 [AD2607],> 100 µM,–,–,–,–
CCCCCCCC(=O)N[C@@H](CO)[C@@H](O)c1ccc([N+](=O)[O-])cc1 [AD2550],64.1 µM,–,–,> 100 µM,–
CCCCCCCCCCCCCCCCCC(=O)N[C@H](CO)[C@H](O)c1ccc([N+](=O)[O-])cc1 [AD2558],34.3 µM,–,–,> 50 µM,–

# Continued, in another order:
"IC50 [1, 4]","IC50 [1, 6]",Compound,"IC90 [1, 5]","IC90 [1, 7]",also measured
–,5.8 µM,CCCCCCCCCCCCCCN[C@H](CO)[C@H](O)c1ccc(NC(C)=O)cc1 [AD-2678],10.6 µM,–,–
–,0.574 ± 0.05 µM,CC(C)(C)NC(=S)N[C@H](CO)[C@H](O)c1ccc([N+](=O)[O-])cc1 [AD-2217],0.958 ± 0.013 µM,–,–
–,> 33 µM,CCN[C@H](CO)[C@H](O)c1ccc([N+](=O)[O-])cc1 [AD-2212],–,–,–
–,> 200 µM,CCCCCCCCCCCCCCCCCCCCN[C@H](CO)[C@H](O)c1ccc([N+](=O)[O-])cc1 [AD-2554],–,–,–
–,3.25 µM,CCCCCCCCCCCCNc1ccc([C@@H](O)[C@@H](CO)NCCCCCCCCCCCC)cc1 [AD-2653],5.5 µM,–,–
–,> 50 µM,CCNC(=S)N[C@H](CO)[C@H](O)c1ccc([N+](=O)[O-])cc1 [AD-2215],–,–,–
–,1.13 ± 0.24 µM,CCCCNC(=S)N[C@H](CO)[C@H](O)c1ccc([N+](=O)[O-])cc1 [AD-2216],13.9 ± 7.1 µM,–,–
–,3.3 µM,CCCCCCCCCCCCCCN[C@H](CO)[C@H](O)c1ccc(NC(=O)CCCCC)cc1 [AD-2680],5.5 µM,–,–
–,1.7 ± 0.2 µM,CCCCCCCCCCCCCCN[C@H](CO)[C@H](O)c1ccc(N)cc1 [AD2672],2.6 ± 0.65 µM,–,IC90 at 5 days [2]: 5.9 µM; IC50 (human MRC-5 cells): 3.7 µM; Index of selectivity (human MRC-5 cells): 2
–,0.78 ± 0.07 µM,CCCCN[C@H](CO)[C@H](O)c1ccc([N+](=O)[O-])cc1 [AD-2493],5.1 ± 0.15 µM,–,–
–,0.0337 ± 0.0037 µM,CCCCCCCCNc1ccc([C@@H](O)[C@@H](CO)NCCCCCCCC)cc1 [AD2670],0.069 ± 0.003 µM,–,"parasite development, trophozoite stage [3]: complete inhibition of parasite development"
–,0.0171 ± 0.0053 µM,CCCCCCCCCCCCN[C@H](CO)[C@H](O)c1ccc([N+](=O)[O-])cc1 [AD-2617],0.304 ± 0.007 µM,–,–
–,1.48 µM,CCCCCCCCCCCCCCN[C@H](CO)[C@H](O)c1ccc(NCC)cc1 [AD-2677],2.7 µM,–,–
–,1.3 ± 0.2 µM,CCCCNc1ccc([C@@H](O)[C@@H](CO)NCCCC)cc1 [AD-2664],2.4 ± 0.7 µM,–,–
